Reference: patent publication US12570666B2, “Furoindazole derivatives” (Bayer Aktiengesellschaft, priority 2019, dated 2026)

Biological target: T1, human GPR84 receptor (Homo sapiens, UniProt Q9NQS5)
T1 construct: frozen aliquots prepared by acCELLerate; host or cells: CHO-K1
Experiment: cAMP HTRF assay for identification of cellular GPR84 antagonists
Assay type: cell-based
Conditions: CHO-K1 cells stably expressing human GPR84; Forskolin + agonist 6-OAU (EC80); average or median values
In short: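 Forskolin-stimulated CHO-K1 cells stably expressing human GPR84, agonist-suppressed cAMP measured by HTRF (665/620 ratio) after lysis. Compounds at 11 concentrations, 20 μM to 0.07 nM, duplicate; normalized to DMSO and no-agonist controls; IC50 by 4-parameter fit.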

T1 sequence (Q9NQS5 whole entry): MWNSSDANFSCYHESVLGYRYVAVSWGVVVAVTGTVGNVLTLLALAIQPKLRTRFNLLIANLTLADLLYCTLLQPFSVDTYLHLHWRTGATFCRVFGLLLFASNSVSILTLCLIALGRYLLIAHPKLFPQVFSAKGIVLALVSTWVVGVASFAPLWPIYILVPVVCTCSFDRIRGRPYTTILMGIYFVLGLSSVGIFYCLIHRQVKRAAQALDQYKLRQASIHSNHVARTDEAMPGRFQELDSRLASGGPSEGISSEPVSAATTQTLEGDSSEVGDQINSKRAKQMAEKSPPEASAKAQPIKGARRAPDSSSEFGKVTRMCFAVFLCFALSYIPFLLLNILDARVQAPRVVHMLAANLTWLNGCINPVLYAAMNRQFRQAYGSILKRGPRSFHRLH

IC50 [nM] | Structure (SMILES)
12 | O=C(NC[C@H]1CC(F)(F)CO1)c1oc2c(c1C(F)(F)F)-c1nn(C[C@H]3COCCO3)cc1CC2 (single isomer, unassigned) [Example 222-1, N-{[(2R or 2S)-4,4-difluorooxolan-2-yl]methyl}-2-{[(2S)-1,4-dioxan-2-yl]methyl}-8-(trifluoromethyl)-4,5-dihydro-2H-furo[2,3-g]indazole-7-carboxamide]
4790 | COc1cccc(-c2cc(CNC(=O)c3oc4c(c3C)-c3nn(Cc5ccccn5)cc3CC4)no2)c1 [Example 14, N-{[5-(3-methoxyphenyl)-1,2-oxazol-3-yl]methyl}-8-methyl-2-(pyridin-2-ylmethyl)-4,5-dihydro-2H-furo[2,3-g]indazole-7-carboxamide]
340 | Cc1c(C(=O)NCc2ccon2)oc2c1-c1nn(CC3COc4ncccc4O3)cc1CC2 (single isomer, unassigned) [Example 55-1]
240 | Cc1c(C(=O)NC[C@@H]2CCCO2)oc2c1-c1nn(C(=O)N(C)C)cc1C1(CC1)C2 [Example 153]
55 | Cn1ccc(CNC(=O)c2oc3c(c2C(F)(F)F)-c2nn(Cc4ccccn4)cc2CC3)n1 [Example 117, N-[(1-methyl-1H-pyrazol-3-yl)methyl]-2-(pyridin-2-ylmethyl)-8-(trifluoromethyl)-4,5-dihydro-2H-furo[2,3-g]indazole-7-carboxamide]
51 | O=C(NC[C@@H]1COCCO1)c1oc2c(c1C1CC1)-c1nn(Cc3ccccn3)cc1CC2 [Example 120, 8-cyclopropyl-N-[(2R)-1,4-dioxan-2-ylmethyl]-2-(pyridin-2-ylmethyl)-4,5-dihydro-2H-furo[2,3-g]indazole-7-carboxamide]
10 | O=C(NC[C@@H]1CCCO1)c1oc2c(c1C(F)(F)F)-c1nn(Cc3ccccn3)cc1C1(CCC1)C2 [Example 274, 2′-(Pyridin-2-ylmethyl)-N-[(2S)-tetrahydrofuran-2-ylmethyl]-8′-(trifluormethyl)-2′,5′-dihydrospiro[cyclobutan-1,4′-furo[2,3-g]indazol]-7′-carboxamide]
54 | O=C(NC[C@H]1CC(F)(F)CO1)c1oc2c(c1C(F)(F)F)-c1nn(C[C@H]3COCCO3)cc1CC2 (single isomer, unassigned) [Example 222-2, N-{[(2S or 2R)-4,4-difluorooxolan-2-yl]methyl}-2-{[(2S)-1,4-dioxan-2-yl]methyl}-8-(trifluoromethyl)-4,5-dihydro-2H-furo[2,3-g]indazole-7-carboxamide]
11 | O=C(NC[C@@H]1CCCO1)c1oc2c(c1C(F)(F)F)-c1nn(CC3CCN(C(=O)C4CC4)CC3)cc1CC2 [Example 286, 2-{[1-(cyclopropanecarbonyl)piperidin-4-yl]methyl}-N-{[(2S)-oxolan-2-yl]methyl}-8-(trifluoromethyl)-4,5-dihydro-2H-furo[2,3-g]indazole-7-carboxamide]
51 | CC1(C)CC[C@H](CNC(=O)c2oc3c(c2C(F)(F)F)-c2nn(C[C@H]4COCCO4)cc2CC3)O1 (single isomer, unassigned) [Example 223-2, N-{[(2S or 2R)-5,5-dimethyloxolan-2-yl]methyl}-2-{[(2S)-1,4-dioxan-2-yl]methyl}-8-(trifluoromethyl)-4,5-dihydro-2H-furo[2,3-g]indazole-7-carboxamide]
170 | Cc1cccc(Cn2cc3c(n2)-c2c(oc(C(=O)NCc4cc(C5CC5)on4)c2C)CC3)n1 [Example 68, N-[(5-cyclopropyl-1,2-oxazol-3-yl)methyl]-8-methyl-2-[(6-methylpyridin-2-yl)methyl]-4,5-dihydro-2H-furo[2,3-g]indazole-7-carboxamide]
64 | Cc1c(C(=O)NC[C@@H]2CCCO2)oc2c1-c1nn(CC3COC3)cc1CC2 [Example 91, 8-methyl-2-(oxetan-3-ylmethyl)-N-[(2S)-tetrahydrofuran-2-ylmethyl]-4,5-dihydro-2H-furo[2,3-g]indazole-7-carboxamide]
3520 | Cc1c(C(=O)NCC2CN(C)CCO2)oc2c1-c1nn(Cc3ccccn3)cc1CC2 (single isomer, unassigned) [Example 38-2]
79 | Cc1c(C(=O)NCC2CC(C)CO2)oc2c1-c1nn(C[C@H]3COCCO3)cc1C1(CC1)C2 (mixture of isomers) [Example 199]
156 | Cn1ccc(CNC(=O)c2oc3c(c2C(F)(F)F)-c2nn(Cc4ccccn4)cc2C2(CCC2)C3)n1 [Example 276, N-[(1-Methyl-1H-pyrazol-3-yl)methyl]-2′-(pyridin-2-ylmethyl)-8′-(trifluormethyl)-2′,5′-dihydrospiro[cyclobutan-1,4′-furo[2,3-g]indazol]-7′-carboxamide]
110 | Cc1c(C(=O)NCc2cc(C3CC3)on2)oc2c1-c1nn(CC3COc4ncccc4O3)cc1CC2 (single isomer, unassigned) [Example 50-1]
202 | CCN1CCC(Cn2cc3c(n2)-c2c(oc(C(=O)NC[C@@H]4CCCO4)c2C(F)(F)F)CC3)CC1 [Example 311, 2-[(1-ethylpiperidin-4-yl)methyl]-N-{[(2S)-oxolan-2-yl]methyl}-8-(trifluoromethyl)-4,5-dihydro-2H-furo[2,3-g]indazole-7-carboxamide]
660 | Cc1cccc(Cn2cc3c(n2)-c2c(oc(C(=O)NCC4CCCO4)c2C)CC3)n1 (single isomer, unassigned) [Example 66-2]
102 | Cc1c(C(=O)NCC2COCC(C)(C)O2)oc2c1-c1nn(Cc3ccccn3)cc1CC2 (racemic) [Example 181]
38 | CC1(C)Cc2oc(C(=O)NC[C@@H]3CCCO3)c(C(F)(F)F)c2-c2nn(C[C@H]3COCCO3)cc21 [Example 268, 2-{[(2S)-1,4-dioxan-2-yl]methyl}-4,4-dimethyl-N-{[(2S)-oxolan-2-yl]methyl}-8-(trifluoromethyl)-4,5-dihydro-2H-furo[2,3-g]indazole-7-carboxamide]
18 | CC1CCC(CNC(=O)c2oc3c(c2C(F)(F)F)-c2nn(C[C@H]4COCCO4)cc2CC3)O1 (mixture of isomers) [Example 224, 2-{[(2S)-1,4-dioxan-2-yl]methyl}-N-{[(2±,5±)-5-methyloxolan-2-yl]methyl}-8-(trifluoromethyl)-4,5-dihydro-2H-furo[2,3-g]indazole-7-carboxamide]
63 | Cc1cccc(Cn2cc3c(n2)-c2c(oc(C(=O)NCC4CCCO4)c2C)CC3)n1 (single isomer, unassigned) [Example 66-1]
18 | O=C(NC[C@@H]1COCCO1)c1oc2c(c1C(F)(F)F)-c1nn(C[C@@H]3COCCO3)cc1CC2 [Example 220, N,2-bis{[(2R)-1,4-dioxan-2-yl]methyl}-8-(trifluoromethyl)-4,5-dihydro-2H-furo[2,3-g]indazole-7-carboxamide]
26 | Cc1ccc(Cn2cc3c(n2)-c2c(oc(C(=O)NC[C@@H]4COCCO4)c2C)CC3)nc1 [Example 65, N-[(2R)-1,4-dioxan-2-ylmethyl]-8-methyl-2-[(5-methylpyridin-2-yl)methyl]-4,5-dihydro-2H-furo[2,3-g]indazole-7-carboxamide]
240 | Cc1c(C(=O)NCC2CCCO2)oc2c1-c1nn(Cc3ccccn3)cc1CC2 (racemic) [Example 3, 8-methyl-2-(pyridin-2-ylmethyl)-N-[(2R/S)-tetrahydrofuran-2-ylmethyl]-4,5-dihydro-2H-furo[2,3-g]indazole-7-carboxamide]
